According to ChEMBL document CHEMBL3856190, “Novel spirothiazamenthane inhibitors of the influenza A M2 proton channel” (Eur J Med Chem, 2016):
The source made the active and inactive calls. The calls are words filed in the database; no cut-off is given here.

Key:
[1] = Cytotoxicity against yeast cells assessed as growth inhibition after 44 hrs by turbidometric assay; type: toxicity, cell-based; conditions: Saccharomyces cerevisiae
[2] = Inhibition of Influenza A virus A/udorn/72(H3N2) wild type M2 proton channel expressed in yeast assessed as growth restoration measured after 44 hrs by turbidometric assay; parameters: species or system Influenza A virus (A/udorn/1972(H3N2))
[3] = Cytotoxicity against yeast cells assessed as growth inhibition at 100 uM after 44 hrs by turbidometric assay; type: toxicity, cell-based; conditions: saccharomyces cerevisiae
[4] = Cytotoxicity against MDCK cells at 3 uM measured after 72 hrs by MTT assay; type: toxicity, cell-based, Canis lupus familiaris; conditions: dog
[5] = Antiviral activity against Influenza A virus A/Puerto Rico/8/34 expressing wild type M2 proton channel infected in MDCK cells assessed as inhibition of viral replication measured after 10 hrs by miniplaque assay; type: functional, cell-based, Influenza A virus (A/Puerto Rico/8/1934(H1N1))
[6] = tested on: MDCK; assay: Antiviral activity against amantadine-sensitive Influenza A virus A/Hong Kong/1/68(H3N2) infected in MDCK cells assessed as protection from virus-induced cell death at 1 uM measured after 72 hrs by MTT assay; type: functional, cell-based; conditions: Influenza A virus (A/Hong Kong/1/1968(H3N2))
[7] = Cytotoxicity against MDCK cells assessed as reduction in cell viability at 100 uM; type: toxicity, cell-based, Canis lupus familiaris; conditions: dog
[8] = tested on: MDCK; assay: Antiviral activity against Influenza A virus A/Puerto Rico/8/34 expressing wild type M2 proton channel infected MDCK cells assessed as inhibition of viral replication at 20 to 100 uM measured after 10 hrs by miniplaque assay; type: functional, cell-based; conditions: Influenza A virus (A/Puerto Rico/8/1934(H1N1))
[9] = Antiviral activity against Influenza A virus A/Puerto Rico/8/34 expressing wild type M2 proton channel infected in MDCK cells assessed as inhibition of viral replication at >= 0.8 uM measured after 10 hrs by miniplaque assay; type: functional, Influenza A virus (A/Puerto Rico/8/1934(H1N1))

| Structure (SMILES) | IC50 at 44 h [1] [µM] | EC50 [2] [µM] | Activity [3] | other results |
| --- | --- | --- | --- | --- |
| CC1(C)N=C(NCc2ccc(F)cc2)S[C@]12CC[C@@H](C)CC2 | 30 |  |  |  |
| CC1(C)N=C(NCCNCc2ccccc2)S[C@]12CC[C@@H](C)CC2 | 100 |  |  |  |
| COc1ccc(C(=O)NC2=NC(C)(C)[C@]3(CC[C@H](C)CC3)S2)c(OC)c1 | 3 |  |  |  |
| CN1CCN(C2=NC(C)(C)[C@]3(CC[C@H](C)CC3)S2)CC1 |  | > 100 | Non-Toxic |  |
| COc1ccc(CNC2=NC(C)(C)[C@]3(CC[C@H](C)CC3)S2)cc1F | 100 |  |  |  |
| Cc1cnc(CN2CCN(CCNC3=NC(C)(C)[C@]4(CC[C@H](C)CC4)S3)CC2)cn1 | 100 | 20 |  |  |
| CC1(C)N=C(NCc2ccc(C#N)cc2)S[C@]12CC[C@@H](C)CC2 | 100 |  |  |  |
| CC1(C)N=C(NCCN2CCN(CC3CCCCC3)CC2)S[C@]12CC[C@@H](C)CC2 |  | 20 | Non-Toxic |  |
| CC1(C)N=C(NCCN2CCN(S(=O)(=O)c3ccccc3)CC2)S[C@]12CC[C@@H](C)CC2 |  | 18 | Non-Toxic |  |
| Cc1cccnc1NCCNC1=NC(C)(C)[C@]2(CC[C@H](C)CC2)S1 | 100 |  |  |  |
| CC1(C)N=C(NCc2ccncc2)S[C@]12CC[C@@H](C)CC2 |  | 2 | Non-Toxic |  |
| CC(C)N1CCN(CCNC2=NC(C)(C)[C@]3(CC[C@H](C)CC3)S2)CC1 |  | 30 | Non-Toxic |  |
| COc1ccc(CNC2=NC(C)(C)[C@]3(CC[C@H](C)CC3)S2)c(OC)c1 | 100 | > 30 |  |  |
| CN1CCC(CNC2=NC(C)(C)[C@]3(CC[C@H](C)CC3)S2)CC1 |  | 10 | Non-Toxic |  |
| COc1cc(F)ccc1CNC1=NC(C)(C)[C@]2(CC[C@H](C)CC2)S1 | > 30 |  |  |  |
| CC1(C)N=C(NCCc2ccncc2)S[C@]12CC[C@@H](C)CC2 |  | > 100 | Non-Toxic |  |
| CC1(C)N=C(NCCn2ccnc2)S[C@]12CC[C@@H](C)CC2 |  | > 100 | Non-Toxic |  |
| CC(=O)N1CCN(CCNC2=NC(C)(C)[C@]3(CC[C@H](C)CC3)S2)CC1 |  | 26 | Non-Toxic |  |
| CC1(C)N=C(NCc2ccccc2O)S[C@]12CC[C@@H](C)CC2 | 100 | 10 |  |  |
| CC1(C)N=C(N2CCOCC2)S[C@]12CC[C@@H](C)CC2 |  | 0.7 | Non-Toxic |  |
| CC1(C)N=C(N)S[C@]12CC[C@@H](C)CC2 |  | 0.03 | Non-Toxic | Activity [4]: Non-Toxic; EC50 [5]: 0.02 µM; Activity [6]: Active |
| CC1(C)N=C(NCCN2CCN(Cc3ccccc3)CC2)S[C@]12CC[C@@H](C)CC2 | > 30 | 0.6 |  | Activity [7]: Toxic; inhibition [8]: Active |
| CC1(C)N=C(NCC2CCNCC2)S[C@]12CC[C@@H](C)CC2 |  | > 100 | Non-Toxic |  |

| Structure (SMILES) | IC50 at 44 h [1] [µM] | EC50 [2] [µM] | Activity [3] | other results |
| --- | --- | --- | --- | --- |
| COc1ccc(CNC2=NC(C)(C)[C@]3(CC[C@H](C)CC3)S2)cc1OC |  |  | Non-Toxic |  |
| COc1ccc(CNC2=NC(C)(C)[C@]3(CC[C@H](C)CC3)S2)cc1Cl | > 30 |  |  |  |
| CC1(C)N=C(NCCN2CCCCC2)S[C@]12CC[C@@H](C)CC2 |  | > 100 | Non-Toxic |  |
| CC1(C)N=C(NCCN2CCN(CCO)CC2)S[C@]12CC[C@@H](C)CC2 |  | 50 | Non-Toxic |  |
| COc1ccc(CNC2=NC(C)(C)[C@]3(CC[C@H](C)CC3)S2)cc1 | 30 |  |  |  |
| CC1(C)N=C(NCCn2cccc2)S[C@]12CC[C@@H](C)CC2 | 100 |  |  |  |
| CCCCOc1ccc(CN2CCN(CCNC3=NC(C)(C)[C@]4(CC[C@H](C)CC4)S3)CC2)cc1 | 3 |  |  |  |
| CC1(C)N=C(N2CCCCC2)S[C@]12CC[C@@H](C)CC2 |  | 10 | Non-Toxic |  |
| CC1(C)N=C(NCc2ccc3cc[nH]c3c2)S[C@]12CC[C@@H](C)CC2 | > 30 |  |  |  |
| CC1(C)N=C(NCc2ccc(O)c(F)c2)S[C@]12CC[C@@H](C)CC2 | > 30 | 10 |  |  |
| CC1(C)N=C(NCc2cccc(F)c2)S[C@]12CC[C@@H](C)CC2 | 10 |  |  |  |
| CC(C)(C)OC(=O)N1CCN(CCNC2=NC(C)(C)[C@]3(CC[C@H](C)CC3)S2)CC1 | > 30 |  |  |  |
| CC1(C)N=C(NC(=O)c2ccccc2)S[C@]12CC[C@@H](C)CC2 | 10 |  |  |  |
| CC1(C)N=C(NCCc2cccnc2)S[C@]12CC[C@@H](C)CC2 |  | 0.9 | Non-Toxic |  |
| CC1(C)N=C(NCc2cccnc2)S[C@]12CC[C@@H](C)CC2 |  | 5 | Non-Toxic |  |
| CCN1CCN(CCNC2=NC(C)(C)[C@]3(CC[C@H](C)CC3)S2)CC1 | 100 | > 30 |  |  |
| CC(C)CCN1CCN(CCNC2=NC(C)(C)[C@]3(CC[C@H](C)CC3)S2)CC1 |  | 10 | Non-Toxic | Activity [7]: Toxic; inhibition [8]: Active |
| CN(C)CCNC1=NC(C)(C)[C@]2(CC[C@H](C)CC2)S1 |  | 100 | Non-Toxic |  |
| CCCCN1CCN(CCNC2=NC(C)(C)[C@]3(CC[C@H](C)CC3)S2)CC1 |  | 3 | Non-Toxic | Activity [7]: Toxic; inhibition [8]: Active |
| CC1(C)N=C(NCc2cc(-c3ccccc3)on2)S[C@]12CC[C@@H](C)CC2 | 10 |  |  |  |
| CCOCCN1CCN(CCNC2=NC(C)(C)[C@]3(CC[C@H](C)CC3)S2)CC1 |  | 2.1 | Non-Toxic | inhibition [8]: Active |
| CC1(C)N=C(NCCN2CCCC2)S[C@]12CC[C@@H](C)CC2 |  | 8 | Non-Toxic |  |
| CN1CCN(CCNC2=NC(C)(C)[C@]3(CC[C@H](C)CC3)S2)CC1 |  | 3 | Non-Toxic | inhibition [8]: Active |

| Structure (SMILES) | IC50 at 44 h [1] [µM] | EC50 [2] [µM] | Activity [3] | other results |
| --- | --- | --- | --- | --- |
| COCCNC1=NC(C)(C)[C@]2(CC[C@H](C)CC2)S1 |  |  | Non-Toxic |  |
| CC1(C)N=C(NCc2cccs2)S[C@]12CC[C@@H](C)CC2 | 30 |  |  |  |
| CC1(C)N=C(NCCN2CCOCC2)S[C@]12CC[C@@H](C)CC2 |  | > 100 | Non-Toxic |  |
| CC1(C)N=C(NCc2ccccn2)S[C@]12CC[C@@H](C)CC2 |  | 10 | Non-Toxic |  |
| CC1(C)N=C(NCc2ccco2)S[C@]12CC[C@@H](C)CC2 | > 30 |  |  |  |
| COc1cccc(CNC2=NC(C)(C)[C@]3(CC[C@H](C)CC3)S2)c1 | 30 |  |  |  |
| CC1(C)N=C(NCc2ccc3c(c2)OCO3)S[C@]12CC[C@@H](C)CC2 | > 30 |  |  |  |
| CC1(C)N=C(NCc2ccccc2F)S[C@]12CC[C@@H](C)CC2 | 10 |  |  |  |
| CC1(C)N=C(NCCN2CCNCC2)S[C@]12CC[C@@H](C)CC2 |  | 2.6 | Non-Toxic |  |
| CC1(C)N=C(NCCc2ccccn2)S[C@]12CC[C@@H](C)CC2 |  | 3 | Non-Toxic |  |
| CC1(C)N=C(NCc2ccccc2)S[C@]12CC[C@@H](C)CC2 | 10 |  |  |  |
| CC1(C)N=C(N2CCNCC2)S[C@]12CC[C@@H](C)CC2 |  | > 100 | Non-Toxic |  |
| CC1(C)N=C(NCCN2CCN(S(C)(=O)=O)CC2)S[C@]12CC[C@@H](C)CC2 |  |  | Non-Toxic |  |
| CC1(C)N=C(NS(=O)(=O)c2ccccc2)S[C@]12CC[C@@H](C)CC2 | 30 |  |  |  |
| COc1ccccc1CNC1=NC(C)(C)[C@]2(CC[C@H](C)CC2)S1 | 10 |  |  |  |
| CCCCCCCCN1CCN(CCNC2=NC(C)(C)[C@]3(CC[C@H](C)CC3)S2)CC1 |  | 10 | Non-Toxic | inhibition [8]: Active |
| CC1(C)N=C(NCCNc2ccccc2)S[C@]12CC[C@@H](C)CC2 | 10 |  |  |  |
| CN(C)CCN1CCN(CCNC2=NC(C)(C)[C@]3(CC[C@H](C)CC3)S2)CC1 |  | 70 | Non-Toxic | inhibition [8]: Active |
| NC12CC3CC(CC(C3)C1)C2 [AMANTADINE] |  | 0.1 |  | Activity [4]: Non-Toxic; EC50 [5]: 0.04 µM; inhibition (INH) [9]: >90%; Activity [6]: Active |
| COc1ccc(C(=O)NC2=NC(C)(C)[C@]3(CC[C@H](C)CC3)S2)cc1 | 10 |  |  |  |
| CC1(C)N=C(NCc2cccc(O)c2)S[C@]12CC[C@@H](C)CC2 |  | > 40 | Non-Toxic |  |
